Results as given in patent publication US9687470B2, “Compounds for use in the treatment of filariasis” (RHEINISCHE FRIEDRICH-WILHELMS UNIVERSITAET BONN, priority 2011, dated 2017).
Entries after “also recorded” stand apart in the source; their conditions may differ.

What was measured:
C6/36 cells = type: cell-based, Aedes albopictus
[1] = tested on: Wolbachia of A. albopictus; test: Susceptibility of Wolbachia to corallopyronin A in vitro (infected C6/36 cells, qPCR 16S-rRNA/actin ratio); type: cell-based
Protocol: The activity of corallopyronin A against Wolbachia was tested in vitro using the Aedes albopictus C6/36 cell line infected with Wolbachia of A. albopictus.
The susceptibility of Wolbachia towards corallopyronin A was investigated as described previously (Henrichfreise, Schiefer et al., “Functional conservation of the lipid II biosynthesis pathway in the cell wall-less bacteria Chlamydia and Wolbachia: why is lipid II needed?”, (2009) Mol Microbiol, 73 (5): 913-923) with some modifications.
The A. albopictus cell line C6/36 (European Collection of Cell Cultures) infected with Wolbachia from A. albopictus B containing supernatant as described in Turner et al., J Immunol 2006, 177(2): 1240-1249 were cultured in 96-well plates by seeding each well with 1×10^4 insect cells. The cells were incubated for 9 days at 26° C. in L15 Leibovitz's medium (Invitrogen, Darmstadt, Germany) supplemented with 5% fetal calf serum (FCS, Invitrogen), 1% nonessential amino acids (PAA Laboratories, Colbe, Germany), 0.59 mg/ml tryptose phosphate broth (Sigma, Munich, Germany) and 0.01% penicillin/streptomycin (PAA Laboratories) with and without 4 μg/ml doxycycline (Merck, Darmstadt, Germany) and 1, 0.1 and 0.01 μg/ml corallopyronin A in duplicate. The medium was replaced every third day. The treated cells were harvested on day 9.
Extraction of genomic DNA was performed with the QIAamp Kit (Qiagen, Hilden, Germany) according to the instructions of the manufacturer. Depletion of Wolbachia was monitored by quantitative real-time PCR (qPCR) using the primers 16S-rRNA-Fw (5′-[…]-3′, SEQ ID NO: 1) and 16S-rRNA-Rev (5′-GTGTGGCTGATCATCCTCT-3′, SEQ ID NO: 2) which target the 16S-rRNA gene (GenBank Accession #: X61767) of Wolbachia and Ac-Fw (5′-[…]-3′, SEQ ID NO: 3) and Ac-Rev (5′-[…]-3′, SEQ ID NO: 4) for actin (GenBank Accession #: DQ657949) of the C6/36 cells.
The PCR reaction mixtures were 20 μl of 1× HotStar Taq Buffer (Qiagen), 3 mM MgCl2, 0.2 mM dNTPs (PeqLab, Erlangen, Germany), 0.5 μM forward and reverse 16S-rRNA primers or 0.3 μM forward and reverse actin primers, 0.2 μl of a 1:1000 dilution in DMSO of SybrGreen (Roche, Mannheim, Germany), 0.5 units HotStar Taq polymerase and 2 μl of gDNA. […] Specific amplification was confirmed by a melting curve analysis from 72° C. to 95° C. with fluorescence acquired on the FAM channel at 1° C. intervals. The copy number of each gene was calculated using a plasmid containing the appropriate insert as standard curve. […]
Normal distribution of the data was calculated using the D′Agostino & Pearson omnibus normality test. […] Alls statistics were calculated using GraphPad Prism version 5.00 for Windows, GraphPad Software, San Diego Calif. […]

Wolbachia = test: Susceptibility of Wolbachia in vivo: depletion from L. sigmodontis worms in infected BALB/c mice (qPCR ftsZ/actin); parameters: species or system Wolbachia of Litomosoides sigmodontis in BALB/c mice
Protocol: The effect of corallopyronin A in vivo was determined in a rodent model of BALB/c mice infected with the rodent filarial worm Litomosoides sigmodontis host to Wolbachia. L. sigmodontis a well established model for human filarial worms. A key advantage of this model is the fact that administration of anti-wolbachial drugs concomitant with infection by the L. sigmodontis larvae allows for a rapid assessment of activity on the day the worms are retrieved from the infected animals.
The L. sigmodontis life cycle was maintained at the Institute for Medical Microbiology, Immunology and Parasitology as described by Al-Qaoud KM et al. (1997) “Infection of BALB/c mice with the filarial nematode Litomosoides sigmodontis: role of CD4+T cells in controlling larval development”, Infect Immun 65: 2457-2461.
Female BALB/c mice aged 6-8 weeks were purchased from Charles River, Sulzfeld, Germany. […]
To control for degradation over time, an aliquot of corallopyronin A was frozen for HPLC analysis on days 1, 14 and 28. […] The worms were sorted by sex with the aid of a dissecting microscope and their lengths measured. […]
Depletion of Wolbachia was monitored by qPCR using the primers Ls-FtsZ-Fw (5′-[…]-3′, SEQ ID NO: 5) and Ls-FtsZ-Rev (5′-TTGCAATTACTGGTGCTGC-3′, SEQ ID NO: 6) and hybridization probe (5′-6-FAM-[…]-TAMRA-3′, SEQ ID NO: 7) which target ftsZ (GenBank Accession #: AJ010271), a single copy number gene of Wolbachia. […] Cycling conditions were: 95° C. for 15 minutes followed by 35 cycles of 94° C. for 4 seconds, 58° C. for 30 seconds and 72° C. for 15 seconds with fluorescence acquired on the FAM channel as described in Arumugam S et al., Int J Parasitol 2008, 38: 981-987.
To normalize the ftsZ content of worms of different lengths, the L. sigmodontis actin gene (GenBank Accession No.: GU971367) was quantified by qPCR using the primers Ac-Fw (5′-[…]-3′, SEQ ID NO: 8) and Ac-Rev (5′-[…]-3′, SEQ ID NO: 9). […]

Litomosoides sigmodontis = test: Worm length (larval development) of L. sigmodontis recovered from treated BALB/c mice; type: in vivo, Litomosoides sigmodontis in BALB/c mice; settings: worms recovered five weeks post infection
Protocol: The effect of corallopyronin A in vivo was determined in a rodent model of BALB/c mice infected with the rodent filarial worm Litomosoides sigmodontis host to Wolbachia. L. sigmodontis a well established model for human filarial worms. A key advantage of this model is the fact that administration of anti-wolbachial drugs concomitant with infection by the L. sigmodontis larvae allows for a rapid assessment of activity on the day the worms are retrieved from the infected animals. […] The L. sigmodontis life cycle was maintained at the Institute for Medical Microbiology, Immunology and Parasitology as described by Al-Qaoud KM et al. (1997) “Infection of BALB/c mice with the filarial nematode Litomosoides sigmodontis: role of CD4+T cells in controlling larval development”, Infect Immun 65: 2457-2461. Female BALB/c mice aged 6-8 weeks were purchased from Charles River, Sulzfeld, Germany. […] The worms were sorted by sex with the aid of a dissecting microscope and their lengths measured. […] Normal distribution of the data was calculated using the D′Agostino & Pearson omnibus normality test. […] Alls statistics were calculated using GraphPad Prism version 5.00 for Windows, GraphPad Software, San Diego Calif. […]

[2] = Tolerability in infected BALB/c mice; type: in vivo; settings: 35 mg/kg/day dosage
Protocol: Female BALB/c mice aged 6-8 weeks were purchased from Charles River, Sulzfeld, Germany. The mice were infected with L. sigmodontis larvae as described in by Al-Qaoud K M et al. Beginning the day after the infection, the mice were untreated or given intra-peritoneal injections of: 10% dimethyl sulfoxide (DMSO) (vehicle control), 50 mg/kg/day doxycycline (Merck), or 35 mg/kg/day of corallopyronin A. Doxycycline was given for 14 days while corallopyronin A and 10% DMSO (vehicle control) were given for 28 days. All substances were diluted in phosphate buffered saline (PBS, PAA Laboratories).

[3] = Stability of corallopyronin A injection samples in PBS by analytical HPLC; type: physicochemical; settings: samples in PBS used for injection; days 1, 14 and 28; compared with purified corallopyronin A
Protocol: To verify that the corallopyronin A was stable over the whole period of the in vivo experiment, aliquots of the samples in phosphate buffered saline (PBS, PAA Laboratories, Colbe, Germany) which were used for injection were analyzed by High performance liquid chromatography (HPLC). The conditions for the analytical HPLC runs were the same as above. […] Five weeks post infection worms were recovered from the pleural cavity by lavage with PBS. The worms were sorted by sex with the aid of a dissecting microscope and their lengths measured. 10 female worms from each treatment were individually frozen for DNA extraction.

C/C=C/C/C=C(/C)[C@H](O)CC/C(C)=C/C=C(\C)C(=O)c1c(O)cc([C@H](C)CC/C=C/NC(=O)OC)oc1=O [corallopyronin A, methyl N-[(1E)-5-[4-hydroxy-3-[(2E,4E,9Z,12E)-8-hydroxy-2,5,9-trimethyltetradeca-2,4,9,12-tetraenoyl]-2-oxo-2H-pyran-6-yl]hex-1-en-1-yl]carbamate]
toxicity to cells / cell growth (C6/36 cells): without apparent cytotoxic effects | depletion of Wolbachia relative to doxycycline ([1]; 1 μg/ml versus 4 μg/ml doxycycline, nine days, C6/36 cell line): levels equivalent to 4 μg/ml of the tetracycline doxycycline; also recorded: levels equivalent to those of 4 μg/ml doxycycline | depletion of Wolbachia ([1]; beginning at 0.1 μg/ml, nine days of treatment, C6/36 cell line): > 50% | anti-wolbachial effect in vitro ([1]; in vitro tests, summary statement): potent anti-wolbachial effect | dose dependence of Wolbachia depletion ([1]; nine day assay, 1, 0.1 and 0.01 μg/ml): dose dependent manner | Wolbachia depletion from worms relative to doxycycline (Wolbachia; 35 mg/kg/day for 28 days versus doxycycline 50 mg/kg/day for 14 days): levels below those seen for doxycycline | depletion of the Wolbachia compared to the control (Wolbachia; BALB/c mice infected with L. sigmodontis, 35 mg/kg/day intra-peritoneal for 28 days): > 99% | anti-wolbachial effect in vivo (Wolbachia; in vivo tests, summary statement): potent anti-wolbachial effect | worm length (Litomosoides sigmodontis; 35 mg/kg/day intra-peritoneal for 28 days, control worms 38 mm): 9.0 mm | tolerability in mice [2]: well tolerated | visually apparent toxic effects in mice [2]: no toxic effects were visually apparent | degradation of corallopyronin A (HPLC) [3]: no degradation

C[C@H]1c2cccc(O)c2C(=O)C2=C(O)[C@]3(O)C(=O)C(C(N)=O)=C(O)[C@@H](N(C)C)[C@@H]3[C@@H](O)[C@@H]21 [doxycycline, reference compound]
worm length (median) (Litomosoides sigmodontis; doxycycline 50 mg/kg/day intra-peritoneal for 14 days, untreated 38 mm, vehicle 34 mm): 8.3 mm
